Starred links: 1 amine or outer side, 2 acyl side, 3 side chain; linkers in the order of their positions; H or OH if unused. Positions of bridges follow the written chain, without caps; N, C: chain ends. Non-standard residues stand in square brackets, D forms with d. Residues, ends and D or L forms follow the SMILES beside them. X1 = O=C(CC1(S[*:2])CCCCC1)[*:1]; Nva = CCC[C@H](N)C(=O)O
Columns and labels:
[1] = system: vasopressor response to arginine vasopressin; assay: Antivasopressor: antagonism to the vasopressor response (Dyckes et al.); assay type: in vivo; conditions: for Antagonistic Activities Antivasopressor pA2: table; for Antivasopressor pA2: Table 1, estimated in vivo pA2; for Antivasopressor Potency ED / AD/VP: Table 2; for Antivasopressor Potency ED: effective dose; for AD/VP: ratio, values fit antivasopressor ED / anti-antidiuretic ED
Method: Antagonism to the vasopressor response was estimated in accordance with Dyckes et al., J. Med. Chem., vol. 17 (1974) at 969. The values are expressed as pA2 values, defined as in Schild et al., Br. J. Pharmacol., vol. 2 (1947) at 189.
(§1) Antagonistic potencies were determined and expressed as "effective doses" and pA2 values. The "effective dose" is defined as the dose (in nanomoles per kilogram) that reduces the response seen from 2x units of agonist injected 20 min after the dose of antagonist to the response with 1x units of agonist. Estimated in vivo "pA2 " values represent the negative logarithms of the effective doses, divided by the estimated volume of distribution (67 ml/kg).

[2] = system: antidiuretic response to arginine vasopressin (ADH); assay: Anti-antidiuretic: antagonism of the antidiuretic response to subsequent injections of vasopressin; assay type: in vivo, rats; conditions: for Anti-Antidiuretic pA2: estimated in vivo pA2, volume of distribution 67 ml/kg; for Anti-Antidiuretic ED: effective dose
Method: Activity as antidiuretic agonists was determined by intravenous injection of the compounds being evaluated in ethanol-anesthesized water-loaded rats in accordance with Sawyer, Endocrinology, vol. 63 (1958) at 694. Antagonism of the response to subsequent injections of vasopressin was tested as described by Sawyer et al., Science, vol. 212 (1981) at 49.
as §1

Molecule | Anti-Antidiuretic pA2 ([2]; Table 1) | Antivasopressor pA2 [1] | Anti-Antidiuretic pA2 ([2]; Table 2) | other results
CCOc1ccc(C[C@@H]2NC(=O)CC3(CCCCC3)SSC[C@@H](C(=O)N3CCC[C@H]3C(=O)N[C@@H](CCCNC(=N)N)C(=O)NCC(N)=O)NC(=O)[C@H](CC(N)=O)NC(=O)[C@H](CCC(N)=O)NC(=O)[C@H](Cc3ccccc3)NC2=O)cc1 [d(CH2)5 Tyr(Et)AVP, reference compound] (Y(Et)FQNCPRG-NH2; linker N-5 via X1) | – | – | – | Antagonistic Activities Antivasopressor pA2 [1]: 8.47 ± 0.04
COc1ccc(C[C@@H]2NC(=O)CC3(CCCCC3)SSC[C@@H](C(=O)N3CCC[C@H]3C(=O)N[C@H](CCCNC(=N)N)C(=O)NCC(N)=O)NC(=O)[C@H](CC(N)=O)NC(=O)[C@H](C(C)C)NC(=O)[C@H](Cc3ccccc3)NC2=O)cc1 [d(CH2)5 Tyr(Me)VDAVP, [1-(β-mercapto-β,β-cyclopentamethylenepropionic acid), 2-O-methyltyrosine, 4-valine, 8-D-arginine]vasopressin] (Y(Me)FVNCP[dR]G-NH2; linker N-5 via X1) | 6.68 ± 0.11 | 8.44 ± 0.07 | – | –
COc1ccc(C[C@H]2NC(=O)CC3(CCCCC3)SSC[C@@H](C(=O)N3CCC[C@H]3C(=O)N[C@@H](CCCNC(=N)N)C(=O)NCC(N)=O)NC(=O)[C@H](CC(N)=O)NC(=O)[C@H](CCC(N)=O)NC(=O)[C@H](Cc3ccccc3)NC2=O)cc1 [d(CH2)5 [D-Tyr(Me)^2]AVP, [1-(β-mercapto-β,β-cyclopentamethylenepropionic acid), 2-D-(O-methyl)tyrosine]-arginine vasopressin] ([dY](Me)FQNCPRG-NH2; linker N-5 via X1) | 6.98 ± 0.08 | 8.27 ± 0.02 | – | –
COc1ccc(C[C@@H]2NC(=O)CC3(CCCCC3)SSC[C@H](C(=O)N3CCC[C@H]3C(=O)N[C@@H](CCCNC(=N)N)C(=O)NCC(N)=O)NC(=O)[C@H](CC(N)=O)NC(=O)[C@H](CCC(N)=O)NC(=O)[C@H](Cc3ccccc3)NC2=O)cc1 [d(CH2)5 Tyr(Me)^2 D-Cys^6 AVP] (Y(Me)FQN[dC]PRG-NH2; linker N-5 via X1) | 5.5 | 7.87 ± 0.09 | – | –
COc1ccc(C[C@H]2NC(=O)CC3(CCCCC3)SSC[C@@H](C(=O)N3CCC[C@H]3C(=O)N[C@@H](CCCNC(=N)N)C(=O)NCC(N)=O)NC(=O)[C@H](CC(N)=O)NC(=O)[C@H](C(C)C)NC(=O)[C@H](Cc3ccccc3)NC2=O)cc1 [d(CH2)5 --D-Tyr(Me)VAVP] ([dY](Me)FVNCPRG-NH2; linker N-5 via X1) | 7.77 ± 0.07 | 8.48 ± 0.08 | – | –
COc1ccc(C[C@@H]2NC(=O)CC3(CCCCC3)SSC[C@@H](C(=O)N3CCC[C@H]3C(=O)N[C@@H](CCCNC(=N)N)C(=O)NCC(N)=O)NC(=O)[C@H](CC(N)=O)NC(=O)[C@H](CCC(N)=O)NC(=O)[C@H](Cc3ccccc3)NC2=O)cc1 [d(CH2)5 Tyr(Me)AVP, [1-(β-mercapto-β,β-cyclopentamethylenepropionic acid), 2-O-methyltyrosine]-arginine vasopressin, reference compound] (Y(Me)FQNCPRG-NH2; linker N-5 via X1) | – | 8.62 ± 0.03 | – | Antagonistic Activities Antivasopressor pA2 [1]: 8.62 ± 0.03
[1-(β-mercapto-β,β-cyclopentamethylenepropionic acid), 2-D-phenylalanine, 4-leucine, 7-hydroxyproline]-arginine vasopressin [d(CH2)5 D-Phe^2 Ile^4 Hy-Pro^7 AVP] | – | – | 7.74 | Anti-Antidiuretic ED ([2]; Table 2): 1.3 ± 0.3 nmol/kg; Antivasopressor Potency ED [1]: 0.9 ± 0.2 nmol/kg; AD/VP [1]: 0.7
CCOc1ccc(C[C@@H]2NC(=O)CC3(CCCCC3)SSC[C@@H](C(=O)N3CCC[C@H]3C(=O)N[C@H](CCCNC(=N)N)C(=O)NCC(N)=O)NC(=O)[C@H](CC(N)=O)NC(=O)[C@H](C(C)C)NC(=O)[C@H](Cc3ccccc3)NC2=O)cc1 [d(CH2)5 Tyr(Et)VDAVP] (Y(Et)FVNCP[dR]G-NH2; linker N-5 via X1) | 7.10 ± 0.08 | 8.31 ± 0.05 | – | –
CCOc1ccc(C[C@H]2NC(=O)CC3(CCCCC3)SSC[C@@H](C(=O)N3CCC[C@H]3C(=O)N[C@@H](CCCNC(=N)N)C(=O)NCC(N)=O)NC(=O)[C@H](CC(N)=O)NC(=O)[C@H](C(C)C)NC(=O)[C@H](Cc3ccccc3)NC2=O)cc1 [d(CH2)5 --D-Tyr(Et)VAVP] ([dY](Et)FVNCPRG-NH2; linker N-5 via X1) | 7.81 ± 0.07 | 8.22 ± 0.12 | – | –
CCOc1ccc(C[C@H]2NC(=O)CC3(CCCCC3)SSC[C@@H](C(=O)N3CCC[C@@H]3C(=O)N[C@@H](CCCNC(=N)N)C(=O)NCC(N)=O)NC(=O)[C@H](CC(N)=O)NC(=O)[C@H](C(C)C)NC(=O)[C@H](Cc3ccccc3)NC2=O)cc1 [d(CH2)5 D-Tyr(Et)^2 D-Pro^7 VAVP] ([dY](Et)FVNC[dP]RG-NH2; linker N-5 via X1) | 7.64 ± 0.08 | 8.10 ± 0.06 | – | –
CCOc1ccc(C[C@@H]2NC(=O)CC3(CCCCC3)SSC[C@@H](C(=O)N3CCC[C@@H]3C(=O)N[C@@H](CCCNC(=N)N)C(=O)NCC(N)=O)NC(=O)[C@H](CC(N)=O)NC(=O)[C@H](C(C)C)NC(=O)[C@H](Cc3ccccc3)NC2=O)cc1 [d(CH2)5 Tyr(Et)^2 D-Pro^7 VAVP] (Y(Et)FVNC[dP]RG-NH2; linker N-5 via X1) | 6.32 ± 0.11 | 8.23 ± 0.13 | – | –
CC[C@@H](C)[C@H]1NC(=O)CC2(CCCCC2)SSC[C@@H](C(=O)N2CCC[C@H]2C(=O)N[C@@H](CCCNC(=N)N)C(=O)NCC(N)=O)NC(=O)[C@H](CC(N)=O)NC(=O)[C@H](C)NC(=O)[C@H](Cc2ccccc2)NC1=O [d(CH2)5 D-Ile^2 Ala^4 AVP, [1-(β-mercapto-β,β-cyclopentamethylenepropionic acid), 2-D-isoleucine, 4-alanine]-arginine vasopressin] ([dI]FANCPRG-NH2; linker N-5 via X1) | – | – | 7.76 | –
CC[C@@H](C)[C@H]1NC(=O)CC2(CCCCC2)SSC[C@@H](C(=O)N2CCC[C@H]2C(=O)N[C@@H](CCCNC(=N)N)C(=O)NCC(N)=O)NC(=O)[C@H](CC(N)=O)NC(=O)[C@H](C(C)C)NC(=O)[C@H](Cc2ccccc2)NC1=O [d(CH2)5 D-Ile^2 VAVP, [1-(β-mercapto-β,β-cyclopentamethylenepropionic acid), 2-D-isoleucine, 4-valine]-arginine vasopressin] ([dI]FVNCPRG-NH2; linker N-5 via X1) | – | – | 7.98 | –
C[C@@H](O)[C@@H]1NC(=O)[C@H](Cc2ccccc2)NC(=O)[C@@H](Cc2ccccc2)NC(=O)CC2(CCCCC2)SSC[C@@H](C(=O)N2CCC[C@H]2C(=O)N[C@@H](CCCNC(=N)N)C(=O)NCC(N)=O)NC(=O)[C@H](CC(N)=O)NC1=O [d(CH2)5 D-Phe^2 Thr^4 AVP, [1-(β-mercapto-β,β-cyclopentamethylenepropionic acid), 2-D-phenylalanine, 4-threonine]-arginine vasopressin] ([dF]FTNCPRG-NH2; linker N-5 via X1) | – | – | 7.62 | –
CCC[C@@H]1NC(=O)[C@H](Cc2ccccc2)NC(=O)[C@@H](Cc2ccccc2)NC(=O)CC2(CCCCC2)SSC[C@@H](C(=O)N2CCC[C@H]2C(=O)N[C@@H](CCCNC(=N)N)C(=O)NCC(N)=O)NC(=O)[C@H](CC(N)=O)NC1=O [d(CH2)5 D-Phe^2 Nva^4 AVP, [1-(β-mercapto-β,β-cyclopentamethylenepropionic acid), 2-D-phenylalanine, 4-norvaline]-arginine vasopressin] ([dF]F[Nva]NCPRG-NH2; linker N-5 via X1) | – | – | 6.99 | –
CC[C@@H](C)[C@H]1NC(=O)CC2(CCCCC2)SSC[C@@H](C(=O)N2CCC[C@H]2C(=O)N[C@@H](CCCNC(=N)N)C(=O)NCC(N)=O)NC(=O)[C@H](CC(N)=O)NC(=O)[C@H](CCC(N)=O)NC(=O)[C@H](Cc2ccccc2)NC1=O [d(CH2)5 D-Ile^2 AVP, [1-(β-mercapto-β,β-cyclopentamethylenepropionic acid), 2-D-isoleucine]-arginine vasopressin] ([dI]FQNCPRG-NH2; linker N-5 via X1) | – | – | 6.96 | –
[1-(β-mercapto-β,β-cyclopentamethylenepropionic acid), 2-D-phenylalanine, 4-aminobutyric acid]-arginine vasopressin [d(CH 2)5 D-Phe^2 Abu^4 AVP] | – | – | 7.96 | Anti-Antidiuretic ED ([2]; Table 2): 0.77 ± 0.12 nmol/kg; Antivasopressor Potency ED [1]: 1.4 ± 0.3 nmol/kg; AD/VP [1]: 1.8

Source: patent publication US4551445A, “Derivatives of arginine vasopressin antagonists” (The Medical College of Ohio, priority 1983, dated 1985)
